Broadly, the IC50 is the concentration that gives 50% inhibition.

2 compounds from paper PMC10363774 (RSC Advances, 2023) can be followed below.

Molecules are shown by their SMILES.

For one experiment, the system named is IL-6. The experiment in a line: In vitro immunomodulatory assay, IL-6. The conditions noted are these: HCT-116 cells, 24 h, at the IC50 concentration. The class given is cell-based, human.
For experiment [1], the system named is MCF-7 cells (breast cancer). The experiment in a line: MTT anti-proliferative assay, MCF-7. The conditions noted are these: Homo sapiens, MCF7, 48 h, read-out: In vitro cytotoxicity IC50 MCF-7. The class given is cell-based.
The test system of experiment [2] is HCT-116 cells (colon cancer). In words: MTT anti-proliferative assay, HCT-116. The following applies: Homo sapiens, HCT-116, 48 h, read-out: In vitro cytotoxicity IC50 HCT 116. The class given is cell-based.

As to `C[C@@H]1C[C@H]2[C@@H]3CCC4=CC(=O)C=C[C@]4(C)[C@@]3(F)[C@@H](O)C[C@]2(C)[C@@]1(O)C(=O)CO` [Dexamethasone], the “Pro-inflammatory factors inhibition IL-6” value in the experiment with IL-6 was 93.15 pg per mL %. On to `CNC(=O)c1cc(Oc2ccc(NC(=O)Nc3ccc(Cl)c(C(F)(F)F)c3)cc2)ccn1` [Sorafenib], for which the IC50 in experiment [1] was determined as 11.83 ± 0.07 µM; in experiment [2] it was 8.96 ± 0.05 µM.
